Assays:
BvHSS [1] = biological target: T1, BvHSS (Blastochloris viridis, UniProt O32323, W229F); assay: X-ray crystal structure, […] A; assay type: binding; details: 1.3 mM NAD+ in protein solution; both subunits; PUT soak, no PUT modelled
T1 construct: gene hss; full length in pETM-14, E. coli BL21(DE3) Gold; dimer, 106 kDa theoretical

PaHSS = biological target: T2, PaHSS (Pseudomonas aeruginosa, UniProt Q6X2Y9); assay: X-ray crystal structure, […] A; assay type: binding
T2 construct: gene CL-17; full length, codon-optimized synthetic gene in pETM-14, E. coli BL21(DE3) Gold; N-terminal 6xHis tag removed with HRV3C protease; 52 kDa monomer in solution (SEC-MALS); crystalline dimers
T2 sequence (Q6X2Y9 1-469): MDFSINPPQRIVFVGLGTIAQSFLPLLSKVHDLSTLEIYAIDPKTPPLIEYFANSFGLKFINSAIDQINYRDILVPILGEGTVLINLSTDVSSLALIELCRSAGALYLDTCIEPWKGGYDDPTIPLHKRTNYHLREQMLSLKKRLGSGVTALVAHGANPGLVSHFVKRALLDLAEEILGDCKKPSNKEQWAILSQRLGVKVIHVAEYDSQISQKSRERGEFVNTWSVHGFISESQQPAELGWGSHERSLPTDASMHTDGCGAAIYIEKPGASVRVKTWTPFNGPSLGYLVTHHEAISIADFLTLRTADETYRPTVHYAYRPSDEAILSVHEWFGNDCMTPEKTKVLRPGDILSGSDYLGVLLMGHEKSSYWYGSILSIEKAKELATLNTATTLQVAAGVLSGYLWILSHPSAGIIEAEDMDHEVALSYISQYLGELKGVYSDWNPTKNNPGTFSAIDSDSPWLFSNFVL

BvHSS [2] = biological target: T3, BvHSS (Blastochloris viridis, UniProt O32323, E210Q); assay: X-ray crystal structure, […] A; assay type: binding; details: 1.3 mM NAD+ in protein solution; both subunits
T3 construct: gene hss; full length in pETM-14, E. coli BL21(DE3) Gold; dimer, 106 kDa theoretical

BvHSS [3] = biological target: T4, BvHSS (Blastochloris viridis, UniProt O32323, E210A); assay: X-ray crystal structure, […] A; assay type: binding; details: 1.3 mM NAD+ in protein solution; both subunits
T4 construct: gene hss; full length in pETM-14, E. coli BL21(DE3) Gold; dimer, 106 kDa theoretical

BvHSS [4] = biological target: T5, BvHSS (Blastochloris viridis, UniProt O32323, W229E); assay: X-ray crystal structure, […] A; assay type: binding; details: 1.3 mM NAD+ in protein solution; both subunits; PUT soak, no PUT modelled
T5 construct: gene hss; full length in pETM-14, E. coli BL21(DE3) Gold; dimer, 106 kDa theoretical

BvHSS [5] = biological target: T6, BvHSS (Blastochloris viridis, UniProt O32323, W229A); assay: X-ray crystal structure, […] A; assay type: binding; details: 1.3 mM NAD+ in protein solution; both subunits; PUT soak
T6 construct: gene hss; full length in pETM-14, E. coli BL21(DE3) Gold; dimer, 106 kDa theoretical

BvHSS [6] = biological target: T7, BvHSS (Blastochloris viridis, UniProt O32323, E117Q); assay: X-ray crystal structure, […] A; assay type: binding; details: 1.3 mM NAD+ in protein solution; both subunits; two ribose conformers
T7 construct: gene hss; full length in pETM-14, E. coli BL21(DE3) Gold; dimer, 106 kDa theoretical

[7] = biological target: the molecule itself; assay: SEC-MALS; HPLC-MALS of the purified proteins in solution; data not shown; method in Supplementary Section S1
[8] = biological target: the molecule itself; assay: crystal structure; BvHSS variants, hanging-drop vapor diffusion at 291 K, sodium acetate pH 4.6-4.8, PEG 10 000, with NAD+ and agmatine sulfate; space group P22(1)2(1), two molecules in the asymmetric unit

## NC(=O)c1ccc[n+]([C@@H]2O[C@H](COP(=O)(O)OP(=O)(O)OC[C@H]3O[C@@H](n4cnc5c(N)ncnc54)[C@H](O)[C@@H]3O)[C@@H](O)[C@H]2O)c1 [NAD^+, nicotinamide adenine dinucleotide]
BvHSS [1]
  X-ray crystal structure, 2.08 A: with each subunit containing an NAD^+ molecule in the binding pocket
PaHSS; 1.3 mM NAD+ in protein solution, all six chains
  X-ray crystal structure, 2.42 A: All six PaHSS molecules contain an NAD^+ molecule in their binding pockets
BvHSS [2]
  X-ray crystal structure, 1.93 A: with each subunit containing an NAD^+ molecule in the binding pocket
BvHSS [3]
  X-ray crystal structure, 1.75 A: with each subunit containing an NAD^+ molecule in the binding pocket
BvHSS [4]
  X-ray crystal structure, 2.76 A: with each subunit containing an NAD^+ molecule in the binding pocket
BvHSS [5]
  X-ray crystal structure, 2.00 A: with each subunit containing an NAD^+ molecule in the binding pocket
BvHSS [6]
  X-ray crystal structure, 1.77 A: with each subunit containing an NAD^+ molecule in the binding pocket

## NCCCCN [PUT, 1,4-diaminobutane]
PaHSS; PUT not added, assumed co-purified from E. coli, active site of chains A, C and E, NAD+ present
  X-ray crystal structure, 2.42 A: molecules A, C and E additionally contain a PUT molecule in the active site

B1: Blastochloris viridis homospermidine synthase, wild type (enzyme)
chain: MTDWPVYHRIDGPIVMIGFGSIGRGTLPLIERHFAFDRSKLVVIDPSDEARKLAEARGVRFIQQAVTRDNYRELLVPLLTAGPGQGFCVNLSVDTSSLDIMELARENGALYIDTVVEPWLGFYFDPDLKPEARSNYALRETVLAARRNKPGGTTAVSCCGANPGMVSWFVKQALVNLAADLGVTGEEPTTREEWARLAMDLGVKGIHIAERDTQRASFPKPFDVFVNTWSVEGFVSEGLQPAELGWGTFERWMPDNARGHDSGCGAGIYLLQPGANTRVRSWTPTAMAQYGFLVTHNESISIADFLTVRDAAGQAVYRPTCHYAYHPCNDAVLSLHEMFGSGKRQSDWRILDETEIVDGIDELGVLLYGHGKNAYWYGSQLSIEETRRIAPDQNATGLQVSSAVLAGMVWALENPNAGIVEADDLDFRRCLEVQTPYLGPVVGVYTDWTPLAGRPGLFPEDIDTSDPWQFRNVLVRD
notes: also called BvHSS; wild-type BvHSS; source: E. coli BL21(DE3) Gold, purified (as described previously, Krossa et al., 2016)
[7]
  stoichiometry N: 2

B2: Blastochloris viridis homospermidine synthase variant E117Q (enzyme)
chain: MTDWPVYHRIDGPIVMIGFGSIGRGTLPLIERHFAFDRSKLVVIDPSDEARKLAEARGVRFIQQAVTRDNYRELLVPLLTAGPGQGFCVNLSVDTSSLDIMELARENGALYIDTVVQPWLGFYFDPDLKPEARSNYALRETVLAARRNKPGGTTAVSCCGANPGMVSWFVKQALVNLAADLGVTGEEPTTREEWARLAMDLGVKGIHIAERDTQRASFPKPFDVFVNTWSVEGFVSEGLQPAELGWGTFERWMPDNARGHDSGCGAGIYLLQPGANTRVRSWTPTAMAQYGFLVTHNESISIADFLTVRDAAGQAVYRPTCHYAYHPCNDAVLSLHEMFGSGKRQSDWRILDETEIVDGIDELGVLLYGHGKNAYWYGSQLSIEETRRIAPDQNATGLQVSSAVLAGMVWALENPNAGIVEADDLDFRRCLEVQTPYLGPVVGVYTDWTPLAGRPGLFPEDIDTSDPWQFRNVLVRD
notes: homospermidine synthase of Blastochloris viridis, UniProtKB O32323, single-residue variant made by site-directed mutagenesis of BvHSS pETM-14; Same construct as m2 with one substitution; also called BvHSS (E117Q); BvHSS E117Q; source: E. coli BL21(DE3) Gold, purified (as described previously, Krossa et al., 2016)
[8]
  binding result: binds

B3: Blastochloris viridis homospermidine synthase variant E210A (enzyme)
chain: MTDWPVYHRIDGPIVMIGFGSIGRGTLPLIERHFAFDRSKLVVIDPSDEARKLAEARGVRFIQQAVTRDNYRELLVPLLTAGPGQGFCVNLSVDTSSLDIMELARENGALYIDTVVEPWLGFYFDPDLKPEARSNYALRETVLAARRNKPGGTTAVSCCGANPGMVSWFVKQALVNLAADLGVTGEEPTTREEWARLAMDLGVKGIHIAARDTQRASFPKPFDVFVNTWSVEGFVSEGLQPAELGWGTFERWMPDNARGHDSGCGAGIYLLQPGANTRVRSWTPTAMAQYGFLVTHNESISIADFLTVRDAAGQAVYRPTCHYAYHPCNDAVLSLHEMFGSGKRQSDWRILDETEIVDGIDELGVLLYGHGKNAYWYGSQLSIEETRRIAPDQNATGLQVSSAVLAGMVWALENPNAGIVEADDLDFRRCLEVQTPYLGPVVGVYTDWTPLAGRPGLFPEDIDTSDPWQFRNVLVRD
notes: homospermidine synthase of Blastochloris viridis, UniProtKB O32323, single-residue variant made by site-directed mutagenesis of BvHSS pETM-14; Same construct as m2 with one substitution; also called BvHSS (E210A); BvHSS E210A; source: E. coli BL21(DE3) Gold, purified (as described previously, Krossa et al., 2016)
[8]
  binding result: binds

B4: Blastochloris viridis homospermidine synthase variant E210Q (enzyme)
chain: MTDWPVYHRIDGPIVMIGFGSIGRGTLPLIERHFAFDRSKLVVIDPSDEARKLAEARGVRFIQQAVTRDNYRELLVPLLTAGPGQGFCVNLSVDTSSLDIMELARENGALYIDTVVEPWLGFYFDPDLKPEARSNYALRETVLAARRNKPGGTTAVSCCGANPGMVSWFVKQALVNLAADLGVTGEEPTTREEWARLAMDLGVKGIHIAQRDTQRASFPKPFDVFVNTWSVEGFVSEGLQPAELGWGTFERWMPDNARGHDSGCGAGIYLLQPGANTRVRSWTPTAMAQYGFLVTHNESISIADFLTVRDAAGQAVYRPTCHYAYHPCNDAVLSLHEMFGSGKRQSDWRILDETEIVDGIDELGVLLYGHGKNAYWYGSQLSIEETRRIAPDQNATGLQVSSAVLAGMVWALENPNAGIVEADDLDFRRCLEVQTPYLGPVVGVYTDWTPLAGRPGLFPEDIDTSDPWQFRNVLVRD
notes: homospermidine synthase of Blastochloris viridis, UniProtKB O32323, single-residue variant made by site-directed mutagenesis of BvHSS pETM-14; Same construct as m2 with one substitution; also called BvHSS (E210Q); BvHSS E210Q; source: E. coli BL21(DE3) Gold, purified (as described previously, Krossa et al., 2016)
[8]
  binding result: binds

B5: Blastochloris viridis homospermidine synthase variant W229A (enzyme)
chain: MTDWPVYHRIDGPIVMIGFGSIGRGTLPLIERHFAFDRSKLVVIDPSDEARKLAEARGVRFIQQAVTRDNYRELLVPLLTAGPGQGFCVNLSVDTSSLDIMELARENGALYIDTVVEPWLGFYFDPDLKPEARSNYALRETVLAARRNKPGGTTAVSCCGANPGMVSWFVKQALVNLAADLGVTGEEPTTREEWARLAMDLGVKGIHIAERDTQRASFPKPFDVFVNTASVEGFVSEGLQPAELGWGTFERWMPDNARGHDSGCGAGIYLLQPGANTRVRSWTPTAMAQYGFLVTHNESISIADFLTVRDAAGQAVYRPTCHYAYHPCNDAVLSLHEMFGSGKRQSDWRILDETEIVDGIDELGVLLYGHGKNAYWYGSQLSIEETRRIAPDQNATGLQVSSAVLAGMVWALENPNAGIVEADDLDFRRCLEVQTPYLGPVVGVYTDWTPLAGRPGLFPEDIDTSDPWQFRNVLVRD
notes: homospermidine synthase of Blastochloris viridis, UniProtKB O32323, single-residue variant made by site-directed mutagenesis of BvHSS pETM-14; Same construct as m2 with one substitution; also called BvHSS (W229A); BvHSS W229A; source: E. coli BL21(DE3) Gold, purified (as described previously, Krossa et al., 2016)
[8]
  binding result: binds

B6: Blastochloris viridis homospermidine synthase variant W229E (enzyme)
chain: MTDWPVYHRIDGPIVMIGFGSIGRGTLPLIERHFAFDRSKLVVIDPSDEARKLAEARGVRFIQQAVTRDNYRELLVPLLTAGPGQGFCVNLSVDTSSLDIMELARENGALYIDTVVEPWLGFYFDPDLKPEARSNYALRETVLAARRNKPGGTTAVSCCGANPGMVSWFVKQALVNLAADLGVTGEEPTTREEWARLAMDLGVKGIHIAERDTQRASFPKPFDVFVNTESVEGFVSEGLQPAELGWGTFERWMPDNARGHDSGCGAGIYLLQPGANTRVRSWTPTAMAQYGFLVTHNESISIADFLTVRDAAGQAVYRPTCHYAYHPCNDAVLSLHEMFGSGKRQSDWRILDETEIVDGIDELGVLLYGHGKNAYWYGSQLSIEETRRIAPDQNATGLQVSSAVLAGMVWALENPNAGIVEADDLDFRRCLEVQTPYLGPVVGVYTDWTPLAGRPGLFPEDIDTSDPWQFRNVLVRD
notes: homospermidine synthase of Blastochloris viridis, UniProtKB O32323, single-residue variant made by site-directed mutagenesis of BvHSS pETM-14; Same construct as m2 with one substitution; also called BvHSS (W229E); BvHSS W229E; source: E. coli BL21(DE3) Gold, purified (as described previously, Krossa et al., 2016)
[8]
  binding result: binds

B7: Blastochloris viridis homospermidine synthase variant W229F (enzyme)
chain: MTDWPVYHRIDGPIVMIGFGSIGRGTLPLIERHFAFDRSKLVVIDPSDEARKLAEARGVRFIQQAVTRDNYRELLVPLLTAGPGQGFCVNLSVDTSSLDIMELARENGALYIDTVVEPWLGFYFDPDLKPEARSNYALRETVLAARRNKPGGTTAVSCCGANPGMVSWFVKQALVNLAADLGVTGEEPTTREEWARLAMDLGVKGIHIAERDTQRASFPKPFDVFVNTFSVEGFVSEGLQPAELGWGTFERWMPDNARGHDSGCGAGIYLLQPGANTRVRSWTPTAMAQYGFLVTHNESISIADFLTVRDAAGQAVYRPTCHYAYHPCNDAVLSLHEMFGSGKRQSDWRILDETEIVDGIDELGVLLYGHGKNAYWYGSQLSIEETRRIAPDQNATGLQVSSAVLAGMVWALENPNAGIVEADDLDFRRCLEVQTPYLGPVVGVYTDWTPLAGRPGLFPEDIDTSDPWQFRNVLVRD
notes: homospermidine synthase of Blastochloris viridis, UniProtKB O32323, single-residue variant made by site-directed mutagenesis of BvHSS pETM-14; Same construct as m2 with one substitution; also called BvHSS (W229F); BvHSS W229F; source: E. coli BL21(DE3) Gold, purified (as described previously, Krossa et al., 2016)
[8]
  binding result: binds
